We go through 2 molecules from patent US5874461A, “Use of Nebivolol as an anti-atherogenic” (priority 1995, dated 1999).

SMILES strings stand for the structures. Where two headings read alike, the source gives them in different places. A value given as a limit tells only on which side of the number the result lay.

In experiment [1] the test system is C6 glioma cells. Briefly: Protection of C6 glioma cells from glutathione depletion-mediated oxidative stress (toxicity, LDH assay). The format is cell-based. As to conditions: 10 mM glutamate; for IC50: 48 hr, read-out: Protection IC50 (mean ± SD, n = 3). From the text:
Competitive inhibition by glutamate of cystine uptake in certain cells leads to glutathione depletion and oxidative stress. This oxidative stress model has been described for glial C6 glioma cells (Kato et al., 1992. A mechanism for glutamate toxicity in the C6 glioma cells involving inhibition of cystine uptake leading to glutathione depletion. Neurosci. 48:903-914) and for the neuronal cell line N18RE105 (Murphy et al., 1989. Glutamate toxicity in a neuronal cell line involves inhibition of cystine transport leading to oxidative stress. Neuron 2:1547-1558).
Cell culture: The C6 glioma cell line (American Type Culture Collection, CCL 107) was cultivated in DMEM supplemented with 2 or 4 mM glutamine, 1 mM pyruvate and 5 or 10% heat-inactivated foetal calf serum. Cultures were maintained at 37° C. in an air/5~10% CO2, water saturated atmosphere.
Glutathione depletion and evaluation of drugs as antioxidants: Experiments were carried out with cultures plated at 30,000~50,000 cells/cm^2 in 24-well culture plates (for toxicity and lipid peroxide measurements) or at 136,000 cells/cm^2 in 96-well culture plates (for GSH determination). After 8-24 hr, the cultures were switched to culture medium in the absence or presence of the cystine uptake inhibitor glutamate at a final concentration of 10 mM. In order to test drugs for inhibition of oxidative stress, the drug was added together with glutamate (final concentration of solvent was 0.01% hydroxypropyl-β-cylodextrin, 0.1% DMSO). Intracellular glutathione levels were measured after 6~8 hr, lipid peroxides were measured after 14~20 hr, and toxicity and protection were analysed after 48 hr using an LDH assay according to the method of Bergmeyer and Bernt (UV-assay with pyruvate and NADH. In: Methods of Enzymatic Analysis. 1974. H. U. Bergmeyer, ed. Acad. Press, New York, 2nd Ed., pp 574-579).

The test system of experiment [2] is primary embryonic hippocampal cultures. Description: In vitro neuroprotection against nitric oxide and superoxide radicals (inhibition of LDH release). The format is cell-based, rats. The settings on record: for inhibition at 1 µM / inhibition at 0.1 µM: Rattus norvegicus, read-out: % neuroprotection, mean ± SD; for inhibition at 1 µM: 10^-6 M; for inhibition at 0.1 µM: 10^-7 M; for neuroprotection against DDTC or SNP: one or the other treatment paradigm. How it is done: Primary embryonic hippocampal cultures were prepared essentially as described previously (Pauwels et al., Van Aschouw, H. P., Peeters, L., Moeremans, M., Leysen, J. E. (1992) Chronic treatment with sabeluzole protects cultured rat brain neurons from the neurotoxic effects of excitatory amino acids. Synapse, 12:271-280). Hippocampal formations of rats at embryonic day 17 were dissected and dissociated in 0.05% trypsin, 0.1 mg/ml DNase I in DMEM (Dulbecco Modified Eagle Medium). Heat-inactivated horse serum (HS) was added to a concentration of 4%, and the cells were centrifuged, washed with DMEM, and resuspended in DMEM/Ham's F12 (3:1) containing 10% HS. The cells were plated at a density of 4×10^5 cells/cm^2 in poly L-lysine (0.001%) precoated multiwell-24 plates. On day 1 in culture, the medium was changed to chemically defined CDM-R12 medium (DMEM-HEPES/Ham's F12 (3:1) containing 0.26% bovine serum albumin, 30 nM sodium selenite, 3 nM 3,3',5 triiodo-L-thyronine, 0.35 μM retinol, 0.3 μM retinol acetate, 2.3 μM DL-a-tocopherol, 2.1 μM DL-a-tocopherol acetate, 3.6 μM linolenic acid, 3.6 μM linoleic acid, 0.125% human transferrin, […], 57.7 nM corticosterone, 49 U/I insulin, 0.4 μM biotin, 10 μM L-carnitine, 83 μM D(+)-galactose, 3.3 μM glutathione, 10 μM ethanolamine, 0.1 mM putrescine; Romijn, H. J., van Huizen, F., Wolters, P. S. (1984) Towards an improved serum-free, chemically defined medium for long-term culturing of cerebral cortex tissue. Neurosci. Behav. Rev., 8:301-334). Acute and prolonged pretreatment of the, cultures was essentially as described previously (Pauwels et al., 1992). Drugs were dissolved, and diluted in 10% or 1% hydroxypropyl-β-cyclodextrin such that the final concentrations of the solvent in the acute and chronic exposures were 0.1% and 0.01% respectively. Compound A as used in the following examples is [(RRSR)+(RRRS)+(SSSR) +(SSRS)]-α-[[[2-(chroman-2-yl)-2-hydroxy-ethyl]amino]methyl]-6-hydroxy-2-chromanmethanol ethanedioate (1:1).
For acute treatment, drug, or solvent was added to the cultures on day 7. After 20 min the medium was replaced with 200 μl chemically defined DMEM medium (the same composition of CDM-R12 medium but without Ham's F12) (control), or chemically defined DMEM medium containing the oxidative stress trigger. Oxidative stress triggers used were 1 mM sodium nitroprusside (SNP, a nitric oxide radical generating compound), or 7.5-10 mM diethyldithiocarbamate (DDTC, a superoxide dismutase inhibitor) and the test compound.
For prolonged pretreatment experiments, drug (concentration range 0.1 nM-10 μM) was added to the serum-free medium on days 1 and 4 of the culture. On day 7, the cultures were washed once with DMEM, and incubated with 0.2 ml chemically defined DMEM medium for 2 h at 37° C. The cells were washed and the medium was replaced by 0.2 ml chemically defined DMEM medium (control), or chemically defined DMEM medium containing the oxidative stress trigger (se above).
For both the acute experiment and the prolonged pretreatment experiment, extracellular and intracellular LDH (lactate dehydrogenase) activities were measured spectrophotometrically at 340 nm with an EPOS Analyzer 5060, according to the method of Bergmeyer (Bergmeyer, H. U. (1974) Biochemical reagents. In: Methods of Enzymatic Analysis. H. U. Bergmeyer, eds. Academic Press, New York, 2nd Ed., pp. […]). Extracellular LDH activity in the culture medium and cytoplasmic LDH activity measured after lysis of the cells in 1 ml H2 O, were used to calculate total LDH activity and % released LDH. % Neuroprotection refers to % inhibition of LDH release, where oxidative stress trigger-induced LDH release is defined as 0% protection, and basal (control) level of LDH release is defined as 100% protection.
Neuronal primary hippocampal cultures were grown in CDM-R12 medium for 7 days. Test compounds were either administered on days 1 and 4 of culture (prolonged pretreatment) or on day 7 of culture (acute treament). […]
For orientation: LDH leaks from cells whose membrane has failed.

Where [3] appears, read: DDTC trigger, prolonged pretreatment.
Setting [4] is: SNP trigger, prolonged pretreatment.

By IC50 is commonly meant the midpoint of a concentration-inhibition curve. For `O[C@H](CNC[C@@H](O)[C@H]1CCc2cc(F)ccc2O1)[C@@H]1CCc2cc(F)ccc2O1` (relative stereo) [nebivolol, (RSSS) and (SRRR) α,α'-iminobis(methylene)bis[6-fluoro-2-chroman-methanol]], the “protection from cell death” value in experiment [1] is recorded as “protected these cultures from cell death with high potency”. In addition, the IC50 in experiment [1] is 9.1 ± 0.1 nM; in experiment [1] (C6 glioma, 48 h), ~9 nM. For the same molecule, the inhibition at 1 µM in experiment [2] (DDTC trigger, acute treatment) is 29 ± 16%; in experiment [2] (setting [3]), 37 ± 23%; in experiment [2] (SNP trigger, acute treatment), < 25%; in experiment [2] (setting [4]), 36 ± 18%. Besides, the inhibition at 0.1 µM in experiment [2] (DDTC trigger, acute treatment) was 32 ± 28%; in experiment [2] (setting [3]), < 25%; in experiment [2] (SNP trigger, acute treatment) it was < 25%; in experiment [2] (setting [4]), 26 ± 13%. In addition, the “neuroprotection against DDTC or SNP” value in experiment [2] is listed as “can confer neuroprotection”.

As for `Oc1ccc2c(c1)CCC(C(O)CNCC(O)C1CCc3ccccc3O1)O2` (stereo not drawn) [Compound A, [(RRSR)+(RRRS)+(SSSR) +(SSRS)]-α-[[[2-(chroman-2-yl)-2-hydroxy-ethyl]amino]methyl]-6-hydroxy-2-chromanmethanol ethanedioate (1:1)], the “protection from cell death” value in experiment [1] is on record as “protected these cultures from cell death with high potency”. The IC50 is 8.6 ± 0.2 nM in experiment [1] and ~9 nM in experiment [1] (C6 glioma, 48 h). Further, the inhibition at 1 µM in experiment [2] (DDTC trigger, acute treatment) is 30 ± 28%; in experiment [2] (setting [3]), < 25%; in experiment [2] (SNP trigger, acute treatment), < 25%; in experiment [2] (setting [4]), 38%. Besides, the inhibition at 0.1 µM in experiment [2] (DDTC trigger, acute treatment) was 35 ± 32%; in experiment [2] (setting [3]), < 25%; in experiment [2] (SNP trigger, acute treatment), < 25%; in experiment [2] (setting [4]), 39 ± 13%. Further, in experiment [2], the “neuroprotection against DDTC or SNP” value was “can confer neuroprotection”.
